Experimental data reported in patent US20090305894A1, “use of sulfonanilides as herbicide” (priority 2005, published 2009).

Assays:
Type in all cases: in vivo
[1] = system: Glycine max; assay: Herbicide damage to crops in dry field, spraying treatment on soil before sprouting (Test Example 4, Table 12); conditions: 80 g ai/ha, rated after 3 weeks
Protocol: (§1) The formulations of active compounds were obtained as emulsions by mixing 1 part by weight of the active compound with the carrier and emulsifier in the described amounts. The formulations were diluted with water so as to adjust a prescribed dosage.
(§2) In a greenhouse seeds of rice (cultivar: Balilla) and weeds (Brachiaria plantaginea, Cyperus esculntus, Cyperus iria L., Echinochloa colonum, Leptochloa chinensis, Ipomoea purpurea, and Sesbania exaltata) were inoculated on the surface layers of pots filled with 100 cm^2 of paddy field soil and covered with soil. Water was poured to produce wet state (water level 0 cm). The prescribed diluted solutions of the formulations of the respective active compounds obtained in the same manner as in Test Example 1 were sprayed on the soil of some pots on completion of the seeding and the solutions of the agents were sprayed over the plants from the above in the rest of the pots after the respective sample plants were grown in first- to third-1 eaf stage in the greenhouse. After one day from the treatment with the compound, water was poured in 3 cm depth. The herbicidal effects and herbicide damage on rice of the respective compounds were investigated after 3 weeks from the treatment. The herbicidal effect and herbicide damage on the rice were rated as 100% in the case of complete withering and 0% in the case of no herbicidal effect or no harm. When herbicidal effect was 80% or higher, it was determined to be practically applicable as herbicides. When the herbicide damage was 20% or lower, the safety of the herbicide was evaluated to be excellent.
(§3) In a greenhouse one seed each of crops in dry field (Triticum aestivum and Glycine max) and weeds (Echinochloa crus-gali and Setaria vividis) were inoculated in the surface layer in one pot filled with 16 cm^2 of dry field soil and covered with soil. The prescribed diluted solutions of the formulations of the respective active compounds obtained in the same manner as in Test Example 1 were sprayed to the soil upon the inoculation. The herbicidal effect and herbicide damage on crops of the respective compounds were investigated after 3 weeks from the treatment. Evaluations of the herbicidal effect and herbicide damage were carried out in the same manner as in Test Example 3. As the representative example, the test results of compound No. 1 and 24, and the comparative compound C-1 are shown in Table 12.

[2] = system: Triticum aestivum; assay: as above; conditions: 80 g ai/ha, rated after 3 weeks
Protocol: as §1, §2, §3

[3] = system: Echinochloa crus-gali; assay: Herbicidal effect on weeds in dry field, spraying treatment on soil before sprouting (Test Example 4, Table 12); conditions: 80 g ai/ha, spraying to soil before sprouting, rated after 3 weeks
Protocol: as §1, §2, §3

[4] = system: Setaria vividis; assay: as above; conditions: 80 g ai/ha, spraying to soil before sprouting, rated after 3 weeks
Protocol: as §1, §2, §3

[5] = system: Triticum aestivum; assay: Herbicide damage to crops in dry field, spraying treatment to stems and leaves after sprouting (Test Example 5, Table 13); conditions: 80 g ai/ha, rated after 3 weeks
Protocol: as §1
as §2, with “The herbicidal effects and herbicide damage on rice of the respective compounds were investigated after 3 weeks from the treatment. The herbicidal effect and herbicide damage on the rice were rated as 100% in the case of complete withering and 0% in the case of no herbicidal effect or no harm.” left out, “excellent. […]” for “excellent.”

[6] = system: Veronica persica; assay: Herbicidal effect on weeds in dry field, spraying treatment to stems and leaves after sprouting (Test Example 5, Table 13); conditions: 80 g ai/ha, rated after 3 weeks
Protocol: as §1, §2
(§4) In a green house one seed each of crops in dry field (Triticum aestivum) and weeds (Veronica persica and Viola mandshurica) were inoculated in the surface layer in one pot filled with 16 cm^2 of dry field soil and covered with soil. After the sample plants were grown to second- and third-leaf stages at the greenhouse, the prescribed diluted solutions of the formulations of the respective active compounds obtained in the same manner as in Test Example 1 were sprayed over the plants from the above. The herbicidal effect and herbicide damage on crops of the respective compounds were investigated after 3 weeks from the treatment. Evaluations of the herbicidal effect and herbicide damage were carried out in the same manner as in Test Example 3.

[7] = system: Viola mandshurica; assay: as above; conditions: 80 g ai/ha, rated after 3 weeks
Protocol: as §1, §2, §4

[8] = system: Scirpus juncoides Roxburgh (resistant to sulfonylurea type herbicide); assay: Herbicidal efficacy test to weeds resistant to sulfonylurea type herbicide (Test Example 1, applied on water surface, Table 8); conditions: 60 g ai/ha, applied on water surface at beginning of sprouting, rated after 3 weeks; 100% = complete withering, 0% = no effect
Protocol: (§5) Preparation of formulation of active compound
(§6) Carrier: DMF 5 parts by weight
(§7) Emulsifier: benzyloxypolyglycol ether 1 part by weight
as §1
(§8) In a greenhouse respective seeds of Scirpus juncoides Roxburgh (from Hokkaido, Japan) and Lindernia procumbens Philcox (from Saitama, Japan), which are confirmed to have resistance to a sulfonylurea type herbicide, were inoculated in pots filled with 500 cm^2 of paddy field soil and water was poured to the pot in about 2 to 3 cm depth. At the beginning of sprouting of the weeds, prescribed diluted solutions of the formulations of the respective active compounds obtained by the above-mentioned manner were applied on the water surface. After the treatment water depth of 3 cm was kept. The herbicidal effect was investigated after 3 weeks of the treatment. The herbicidal effect was rated as 100% in the case of complete withering and 0% in the case of no herbicidal effect. When the herbicidal effect was 80% or higher, the practical effectiveness as herbicides is recognized. As the representative examples, the test results of the compound Nos. 1, 3, 4, 5, 6, 7, 13, 70, 127, 128 and 130 are shown in Table 8.

[9] = system: rice (cultivar: Balilla); assay: Irrigated directly seeded paddy rice, herbicide damage, spraying to soil before sprouting (Test Example 3, Table 10); conditions: 20 g ai/ha, rated after 3 weeks
Protocol: as §1, §2

[10] = system: Brachiaria plantaginea; assay: Irrigated directly seeded paddy rice, herbicidal effect, spraying to soil before sprouting (Test Example 3, Table 10); conditions: 20 g ai/ha, rated after 3 weeks
Protocol: as §1, §2

[11] = system: Cyperus esculntus; assay: as above; conditions: 20 g ai/ha, rated after 3 weeks
Protocol: as §1, §2

[12] = system: Cyperus iria L.; assay: as above; conditions: 20 g ai/ha, rated after 3 weeks
Protocol: as §1, §2

[13] = system: Echinochloa colonum; assay: as above; conditions: 20 g ai/ha, rated after 3 weeks
Protocol: as §1, §2

[14] = system: Ipomoea purpurea; assay: as above; conditions: 20 g ai/ha, rated after 3 weeks
Protocol: as §1, §2

[15] = system: Leptochloa chinensis; assay: as above; conditions: 20 g ai/ha, rated after 3 weeks
Protocol: as §1, §2

[16] = system: Sesbania exaltata; assay: as above; conditions: 20 g ai/ha, rated after 3 weeks
Protocol: as §1, §2

[17] = system: rice (cultivar: Balilla); assay: Irrigated directly seeded paddy rice, herbicide damage, spraying to stems and leaves after sprouting (Test Example 3, Table 11); conditions: 20 g ai/ha, rated after 3 weeks
Protocol: as §1, §2

[18] = system: Brachiaria plantaginea; assay: Irrigated directly seeded paddy rice, herbicidal effect, spraying to stems and leaves after sprouting (Test Example 3, Table 11); conditions: 20 g ai/ha, rated after 3 weeks
Protocol: as §1, §2

[19] = system: Cyperus esculntus; assay: as above; conditions: 20 g ai/ha, rated after 3 weeks
Protocol: as §1, §2

[20] = system: Cyperus iria L.; assay: as above; conditions: 20 g ai/ha, rated after 3 weeks
Protocol: as §1, §2

[21] = system: Echinochloa colonum; assay: as above; conditions: 20 g ai/ha, rated after 3 weeks
Protocol: as §1, §2

[22] = system: Ipomoea purpurea; assay: as above; conditions: 20 g ai/ha, rated after 3 weeks
Protocol: as §1, §2

[23] = system: Leptochloa chinensis; assay: as above; conditions: 20 g ai/ha, rated after 3 weeks
Protocol: as §1, §2

[24] = system: Sesbania exaltata; assay: as above; conditions: 20 g ai/ha, rated after 3 weeks
Protocol: as §1, §2

[25] = system: Lindernia procumbens Philcox (resistant to sulfonylurea type herbicide); assay: Herbicidal efficacy test to weeds resistant to sulfonylurea type herbicide (Test Example 1, applied on water surface, Table 8); conditions: 60 g ai/ha, applied on water surface at beginning of sprouting, rated after 3 weeks; 100% = complete withering, 0% = no effect
Protocol: as §5, §6, §7, §1, §8

COc1cc(OC)nc(C(O)c2cccc(F)c2NS(=O)(=O)C(F)(F)F)n1 (stereo not drawn) [C-1, reference compound]
0%: Herbicide damage Triticum aestivum [2] | Herbicidal effect Echinochloa crus-gali [3] | Herbicidal effect Setaria vividis [4] | Herbicide damage Triticum aestivum [5]
20%: Herbicide damage Glycine max [1]
60%: Herbicidal effect Veronica persica [6]
30%: Herbicidal effect Viola mandshurica [7]

COc1nc(OC)nc(C(=O)c2cccc(F)c2N(C)S(=O)(=O)C(F)F)n1 [Compound No. 1]
80%: Herbicidal effect Brachiaria plantaginea [10] | Herbicidal effect Leptochloa chinensis [23] | Herbicidal effect Setaria vividis [4]
100%: Herbicidal effect to sulfonylurea resistant weeds: Scirpus juncoides Roxburgh (from Hokkaido) [8] | Herbicidal effect Cyperus esculntus [11] | Herbicidal effect Cyperusiria L. [12] | Herbicidal effect Echinochloa colonum [13] | Herbicidal effect Leptochloa chinensis [15] | Herbicidal effect Sesbania exaltata [16] | Herbicidal effect Brachiaria plantaginea [18] | Herbicidal effect Cyperus esculntus [19] | Herbicidal effect Cyperusiria L. [20] | Herbicidal effect Echinochloa colonum [21] | Herbicidal effect Sesbania exaltata [24]
90%: Herbicidal effect Ipomoea purpurea [14] | Herbicidal effect Ipomoea purpurea [22] | Herbicidal effect Echinochloa crus-gali [3]
20%: Herbicide damage on Rice [9] | Herbicide damage on Rice [17] | Herbicide damage Glycine max [1]
0%: Herbicide damage Triticum aestivum [2]

COc1cc(OC)nc(C(Cl)c2cccc(F)c2NS(=O)(=O)C(F)F)n1 (stereo not drawn) [compound 13]
100%: Herbicidal effect to sulfonylurea resistant weeds: Lindernia procumbens Philcox (from Saitama pref.) [25] | Herbicidal effect to sulfonylurea resistant weeds: Scirpus juncoides Roxburgh (from Hokkaido) [8] | Herbicidal effect Veronica persica [6] | Herbicidal effect Viola mandshurica [7]
0%: Herbicide damage Triticum aestivum [5]
